Measured values as given in patent EP3521435A1, “A HIGH STRINGENCY SELECTION SYSTEM FOR PROTEIN EXPRESSION IN PROLINE-AUXOTROPHIC CELLS” (Bayer AG, priority 2018, dated 2019).

How the values were obtained:
CHO-K1 cells [1] = assay: Flow cytometric analysis of GFP expression (MFI, high fluorescing cells) in stably selected cell populations; assay type: cell-based, Chinese hamster
Description: (§1) To efficiently test the impact of different procedures on improving selection stringency, experimental testing in stable cell populations was performed. As test molecules, enhanced green fluorescent protein (GFP) as well as a human IgG1 were chosen. CHO-K1 cells adapted to growth in suspension in defined medium were obtained from SAFC and cultivated in EX-CELL CD CHO Fusion medium (SAFC 14365C). Custom-made EX-CELL CD CHO Fusion medium without L-Proline (Pro) and without L-Ornithine (Orn) ("proline-free medium") was obtained from SAFC. The expression vector system was based on modified versions of "CET 1019 AS-puro-SceI" and "CET 1019 AD-puro-SceI" for GFP and human IgG1, respectively, from Merck-Millipore, containing the Puromycin selection marker (Puromycin N-acetyl-transferase) known to exert a high selection stringency. To minimize variations in cell populations derived from using different transfections or different vectors, the first series of experiments were conducted using vectors into which a P5CS expression cassette was cloned upstream of a UCOE element, in addition to the Puromycin selection marker present downstream of a gene of interest. This way, it was possible to pool different transfections using the same vector to obtain a common starting point, and split the mixture according to different selection conditions, minimizing any variations that are not due to selection conditions themselves. Expression of long and short isoform of murine P5CS (Protein: Delta-1-pyrroline-5-carboxylate synthase; Gene: Aldh18a1; UniProtKB accession number: Q9Z110-1 & Q9Z110-2) was driven by a SV40 promoter. A SV40 polyadenylation sequence was used at the 3' end of the gene. More details can be found in Table 1. Typically, CHO cells were cultivated in EX-CELL CD CHO Fusion medium containing 6 mM GlutaMAX (Thermo Fisher, 35050-38) ("CD-Fusion medium") at 37 °C with 5% CO2. Cells were grown to logarithmic phase under shaking conditions for transfections. 1e7 cells/cuvette were transfected using nucleofection (Amaxa Nucleofector II, following the manufacturer's recommendations) with 5 µg of linearized DNA. After transfection, cells were taken up in 1 ml medium and transferred into 1 well of a 6 well microtiter plate (MTP) already containing 1 ml medium. The cells were incubated for 24 h without shaking, after which 9 ml medium were added and cells were washed (either in standard or proline-free medium). Multiple transfections were pooled, if applicable. Cells were adjusted to 2e5 viable cells/ml and 10 ml were transferred to T-25 flasks. Reference cell populations were selected using 10 µg/ml Puromycin in CD-Fusion medium. For P5CS-based selection, EX-CELL CD CHO Fusion medium (custom-made, SAFC) containing 6 mM GlutaMAX without proline and without ornithine was used ("proline-free" or "CD-Fusion w/o Pro" medium), with or without additional selection pressure.
(§2) Cell viability of the different populations was monitored over time. As soon as cell populations appeared to recover from selection pressure, cells were transferred to Shake Flask or TubeSpins for expansion in suspension under shaking conditions. Subsequently, stable cell populations transfected with IgG were seeded at 2e5 viable cells/ml for batch fermentation without selection pressure (i.e. standard CD-Fusion medium containing proline and no other selective agents). The cells were cultivated for 5-10 days, viable cell densities and productivity were monitored over time. IgG titers were determined using Poros A-HPLC method. Typically, final batch titers were recorded at a time point at which majority of cultures had around 70% viability. Stable cell populations transfected with GFP vector were subjected to analysis by flow cytometry using Guava easyCyte 8HT Benchtop Flow Cytometer (Millipore). 250 µl of cell culture were transferred to 96 MTP and washed with PBS. Dead cells were excluded from analysis using propidium iodide (PI). […]

CHO-K1 cells [2] = assay: Batch fermentation in shake flasks of human IgG1 expressing stable cell populations (Poros A-HPLC titer, viable cell density, viability); assay type: cell-based, Chinese hamster; conditions: for Productivity profile / Batch titer day 7: human IgG1
Description: as §1, §2

[3] = Table 11, day 19 post-transfection, pJF1555, CD-Fusion + 10 µg/ml Puromycin
[4] = Table 11, day 19 post-transfection, pJF1555, CD-Fusion w/o Pro + 0.25mM Pro + 10 µg/ml Puromycin
[5] = Table 13, day 19 post-transfection, pJF1555, CD-Fusion + 10 µg/ml Puromycin
[6] = Table 13, day 19 post-transfection, pJF1555, CD-Fusion w/o Pro + 0.25 mM Pro + 10 µg/ml Puromycin
[7] = Table 13, day 19 post-transfection, pJF1576 (control, human IgG1 vector), CD-Fusion + 10 µg/ml Puromycin
[8] = day 15 post-transfection, pJF1555, CD Fusion + 10 µg/ml Puromycin
[9] = day 15 post-transfection, pJF1555, CD-Fusion w/o Pro + 10 µg/ml Puromycin
[10] = day 15 post-transfection, pJF1555, CD-Fusion w/o Pro + 0.25 mM Pro + 10 µg/ml Puromycin
[11] = day 20 post-transfection, pJF1556, CD Fusion + 10 µg/ml Puromycin
[12] = day 20 post-transfection, pJF1556, CD-Fusion w/o Pro + 10 µg/ml Puromycin
[13] = day 20 post-transfection, pJF1556, CD-Fusion w/o Pro + 0.25 mM Pro + 10 µg/ml Puromycin
[14] = day 22 post-transfection, pJF2053, CD-Fusion + 10 µg/ml Puromycin
[15] = day 22 post-transfection, pJF2222, CD-Fusion + 10 µg/ml Puromycin
[16] = day 29 post-transfection, pJF2053, CD-Fusion + 10 µg/ml Puromycin
[17] = Day 2 after inoculation, pJF1576, selected in CD Fusion + 10 µg/ml Puromycin, non-selecting conditions
[18] = Day 2 after inoculation, pJF1576, selected in CD-Fusion w/o Pro + 0.25 mM Pro + 10 µg/ml Puromycin, non-selecting conditions
[19] = Day 3 after inoculation, pJF1576, selected in CD Fusion + 10 µg/ml Puromycin, selective conditions
[20] = Day 4 after inoculation, pJF1576, selected in CD Fusion + 10 µg/ml Puromycin, non-selecting conditions
[21] = Day 4 after inoculation, pJF1576, selected in CD-Fusion w/o Pro + 0.25 mM Pro + 10 µg/ml Puromycin, non-selecting conditions
[22] = Day 5 after inoculation, pJF1576, selected in CD Fusion + 10 µg/ml Puromycin, selective conditions
[23] = Day 7 after inoculation, pJF1576, selected in CD Fusion + 10 µg/ml Puromycin, non-selecting conditions
[24] = Day 7 after inoculation, pJF1576, selected in CD Fusion + 10 µg/ml Puromycin, selective conditions
[25] = Day 7 after inoculation, pJF1576, selected in CD-Fusion w/o Pro + 0.25 mM Pro + 10 µg/ml Puromycin, non-selecting conditions
[26] = Day 9 after inoculation, pJF1576, selected in CD Fusion + 10 µg/ml Puromycin, non-selecting conditions
[27] = Day 9 after inoculation, pJF1576, selected in CD-Fusion w/o Pro + 0.25 mM Pro + 10 µg/ml Puromycin, non-selecting conditions

SMILES: COc1ccc(C[C@H](N)C(=O)N[C@H]2[C@@H](O)[C@H](n3cnc4c(N(C)C)ncnc43)O[C@@H]2CO)cc1 [Puromycin]
- Frequency of high fluorescing cells (CHO-K1 cells [1]; Table 9, day 15 post-transfection, pJF1555, CD-Fusion w/o Pro + 0.25 mM Pro + 10 µg/ml Puromycin): 4.3%
- Frequency of high fluorescing cells (CHO-K1 cells [1]; [3]): 3.4%
- Median Fluorescence Intensity (MFI) (yellow) (CHO-K1 cells [1]; [3]): 13092
- Frequency of high fluorescing cells (CHO-K1 cells [1]; [4]): 3.6%
- Median Fluorescence Intensity (MFI) (yellow) (CHO-K1 cells [1]; [4]): 12860
- Frequency of high fluorescing cells (CHO-K1 cells [1]; [5]): 1.0%
- Median Fluorescence Intensity (MFI) (yellow) (CHO-K1 cells [1]; [5]): 6167
- Frequency of high fluorescing cells (CHO-K1 cells [1]; [6]): 1.5%
- Median Fluorescence Intensity (MFI) (yellow) (CHO-K1 cells [1]; [6]): 6625
- Frequency of high fluorescing cells (CHO-K1 cells [1]; [7]): 0.1%
- Median Fluorescence Intensity (MFI) (yellow) (CHO-K1 cells [1]; [7]): 9
- Frequency of high fluorescing cells (CHO-K1 cells [1]; [8]): 5.1%
- Median Fluorescence Intensity (MFI) (yellow) (CHO-K1 cells [1]; [8]): 5072
- Frequency of high fluorescing cells (CHO-K1 cells [1]; [9]): 5.1%
- Median Fluorescence Intensity (MFI) (yellow) (CHO-K1 cells [1]; [9]): 5102
- Frequency of high fluorescing cells (CHO-K1 cells [1]; [10]): 4.6%
- Median Fluorescence Intensity (MFI) (yellow) (CHO-K1 cells [1]; [10]): 4394
- Frequency of high fluorescing cells (CHO-K1 cells [1]; [11]): 6.9%
- Median Fluorescence Intensity (MFI) (yellow) (CHO-K1 cells [1]; [11]): 7827
- Frequency of high fluorescing cells (CHO-K1 cells [1]; [12]): 8.7%
- Median Fluorescence Intensity (MFI) (yellow) (CHO-K1 cells [1]; [12]): 9370
- Frequency of high fluorescing cells (CHO-K1 cells [1]; [13]): 9.6%
- Median Fluorescence Intensity (MFI) (yellow) (CHO-K1 cells [1]; [13]): 8783
- Frequency of high fluorescing cells (CHO-K1 cells [1]; [14]): 2.5%
- Median Fluorescence Intensity (MFI) (yellow) (CHO-K1 cells [1]; [14]): 11308
- Frequency of high fluorescing cells (CHO-K1 cells [1]; [15]): 4.2%
- Median Fluorescence Intensity (MFI) (yellow) (CHO-K1 cells [1]; [15]): 11476
- Frequency of high fluorescing cells (CHO-K1 cells [1]; [16]): 2.3%
- Median Fluorescence Intensity (MFI) (yellow) (CHO-K1 cells [1]; [16]): 11502
- Viability profile (CHO-K1 cells [2]; Day 0 after inoculation, pJF1576, selected in CD Fusion + 10 µg/ml Puromycin, non-selecting conditions): 98.7%
- Viability profile (CHO-K1 cells [2]; Day 0 after inoculation, pJF1576, selected in CD Fusion + 10 µg/ml Puromycin, selective conditions): 92.8%
- Viability profile (CHO-K1 cells [2]; Day 0 after inoculation, pJF1576, selected in CD-Fusion w/o Pro + 0.25 mM Pro + 10 µg/ml Puromycin, non-selecting conditions): 99.0%
- Productivity profile (CHO-K1 cells [2]; [17]): 6.9 mg/L
- Productivity profile (CHO-K1 cells [2]; Day 2 after inoculation, pJF1576, selected in CD Fusion + 10 µg/ml Puromycin, selective conditions): 10.9 mg/L
- Productivity profile (CHO-K1 cells [2]; [18]): 11.2 mg/L
- Viability profile (CHO-K1 cells [2]; [17]): 99.0%
- Viable cell density profile (CHO-K1 cells [2]; [17]): 7,7E+05 VCD/ml
- Viability profile (CHO-K1 cells [2]; [18]): 99.1%
- Viable cell density profile (CHO-K1 cells [2]; [18]): 8,3E+05 VCD/ml
- Viability profile (CHO-K1 cells [2]; [19]): 98.4%
- Viable cell density profile (CHO-K1 cells [2]; [19]): 1.7E+06 VCD/ml
- Productivity profile (CHO-K1 cells [2]; [20]): 15.1 mg/L
- Productivity profile (CHO-K1 cells [2]; Day 4 after inoculation, pJF1576, selected in CD Fusion + 10 µg/ml Puromycin, selective conditions): 27.6 mg/L
- Productivity profile (CHO-K1 cells [2]; [21]): 24.1 mg/L
- Viability profile (CHO-K1 cells [2]; [20]): 99.7%
- Viable cell density profile (CHO-K1 cells [2]; [20]): 6,2E+06 VCD/ml
- Viability profile (CHO-K1 cells [2]; [21]): 99.8%
- Viable cell density profile (CHO-K1 cells [2]; [21]): 5,4E+06 VCD/ml
- Viability profile (CHO-K1 cells [2]; [22]): 99.1%
- Viable cell density profile (CHO-K1 cells [2]; [22]): 7.1E+06 VCD/ml
- Productivity profile (CHO-K1 cells [2]; [23]): 43.3 mg/L
- Productivity profile (CHO-K1 cells [2]; [24]): 60.5 mg/L
- Productivity profile (CHO-K1 cells [2]; [25]): 60.6 mg/L
- Viability profile (CHO-K1 cells [2]; [23]): 98.7%
- Viable cell density profile (CHO-K1 cells [2]; [23]): 1,2E+07 VCD/ml
- Viability profile (CHO-K1 cells [2]; [24]): 97.7%
- Viable cell density profile (CHO-K1 cells [2]; [24]): 1.1E+07 VCD/ml
- Viability profile (CHO-K1 cells [2]; [25]): 97.8%
- Viable cell density profile (CHO-K1 cells [2]; [25]): 1,0E+07 VCD/ml
- Productivity profile (CHO-K1 cells [2]; [26]): 61.5 mg/L
- Productivity profile (CHO-K1 cells [2]; [27]): 92.5 mg/L
- Viability profile (CHO-K1 cells [2]; [26]): 43.9%
- Viable cell density profile (CHO-K1 cells [2]; [26]): 5,8E+06 VCD/ml
- Viability profile (CHO-K1 cells [2]; [27]): 58.1%
- Viable cell density profile (CHO-K1 cells [2]; [27]): 6,2E+06 VCD/ml
- Batch titer day 7 (CHO-K1 cells [2]; pJF1576, selected in CD Fusion + 10 µg/ml Puromycin, non-selecting conditions): 145 mg/L
- Batch titer day 7 (CHO-K1 cells [2]; pJF1576, selected in CD-Fusion w/o Pro + 10 µg/ml Puromycin, non-selecting conditions): 198 mg/L
- Batch titer day 7 (CHO-K1 cells [2]; pJF1576, selected in CD-Fusion w/o Pro + 0.25 mM Pro + 10 µg/ml Puromycin, non-selecting conditions): 164 mg/L
- Batch titer day 7 (CHO-K1 cells [2]; pJF1577, selected in CD Fusion + 10 µg/ml Puromycin, non-selecting conditions): 174 mg/L
- Batch titer day 7 (CHO-K1 cells [2]; pJF1577, selected in CD-Fusion w/o Pro + 10 µg/ml Puromycin, non-selecting conditions): 154 mg/L
- Batch titer day 7 (CHO-K1 cells [2]; pJF1577, selected in CD-Fusion w/o Pro + 0.25 mM Pro + 10 µg/ml Puromycin, non-selecting conditions): 127 mg/L
